{"source": "patent US20160113932A1", "about": "“TREATMENT OF CANCERS USING PI3 KINASE ISOFORM MODULATORS” (INFINITY PHARMACEUTICALS, INC., priority 2013, published 2016)", "key": {"[1]": {"experiment": "Absolute bioavailability / pharmacokinetics in Beagle dogs", "format": "in vivo", "details": "Dog, PO, 5 mg/kg"}, "Human T-cell": {"tested_on": "Human T-cell", "experiment": "Human T-cell proliferation", "format": "cell-based"}, "[2]": {"tested_on": "pAKT and Ki-67 expression in primary CLL cells", "experiment": "CLL cell proliferation with CD40L/IL-2/IL-10, four color FACS", "format": "cell-based", "details": "Homo sapiens, primary CLL cells stimulated with CD40L/IL-2/IL-10, n=2, read-out: EC50, inhibition of pAKT and Ki-67 expression", "procedure": "Generally, CLL cells were seeded and incubated with proliferation cocktail (containing sCD40L, rH-IL 10 and rH-IL 2) in media. Then, four color FACS analysis was performed using antibodies to pAKT, Ki-67, CD19 and CD5."}, "[3]": {"experiment": "In vivo rat micronucleus assay"}, "OCI-LY3": {"tested_on": "OCI-LY3", "experiment": "DLBCL cellular growth inhibition assay", "format": "cell-based", "details": "Homo sapiens", "procedure": "Activation of the PI3K pathway is an important component of normal B-cell receptor (BCR) signaling and has been implicated in the pathogenesis of DLBCL. […] There was rapid modulation of phospho-AKT and phospho-PRAS40 by 30 minutes, whereas modulation of phospho-S6 was not detected until after 8 hours."}, "PI3K δ [4]": {"biological_target": "T1, PI3K δ (Homo sapiens, UniProt O00329)", "experiment": "Plasma concentration for suppression of PI3K-δ (PK/PD)", "design": "endogenous in cells; host or cells: RAJI (human Burkitt lymphoma)"}, "human P-glycoprotein": {"biological_target": "T2, human P-glycoprotein (Homo sapiens, UniProt P08183)", "T2 construct": "assessed in vitro using Caco-2 cell monolayers; endogenous in cells; host or cells: Caco-2 cell monolayers", "T2 sequence (P08183 whole entry)": "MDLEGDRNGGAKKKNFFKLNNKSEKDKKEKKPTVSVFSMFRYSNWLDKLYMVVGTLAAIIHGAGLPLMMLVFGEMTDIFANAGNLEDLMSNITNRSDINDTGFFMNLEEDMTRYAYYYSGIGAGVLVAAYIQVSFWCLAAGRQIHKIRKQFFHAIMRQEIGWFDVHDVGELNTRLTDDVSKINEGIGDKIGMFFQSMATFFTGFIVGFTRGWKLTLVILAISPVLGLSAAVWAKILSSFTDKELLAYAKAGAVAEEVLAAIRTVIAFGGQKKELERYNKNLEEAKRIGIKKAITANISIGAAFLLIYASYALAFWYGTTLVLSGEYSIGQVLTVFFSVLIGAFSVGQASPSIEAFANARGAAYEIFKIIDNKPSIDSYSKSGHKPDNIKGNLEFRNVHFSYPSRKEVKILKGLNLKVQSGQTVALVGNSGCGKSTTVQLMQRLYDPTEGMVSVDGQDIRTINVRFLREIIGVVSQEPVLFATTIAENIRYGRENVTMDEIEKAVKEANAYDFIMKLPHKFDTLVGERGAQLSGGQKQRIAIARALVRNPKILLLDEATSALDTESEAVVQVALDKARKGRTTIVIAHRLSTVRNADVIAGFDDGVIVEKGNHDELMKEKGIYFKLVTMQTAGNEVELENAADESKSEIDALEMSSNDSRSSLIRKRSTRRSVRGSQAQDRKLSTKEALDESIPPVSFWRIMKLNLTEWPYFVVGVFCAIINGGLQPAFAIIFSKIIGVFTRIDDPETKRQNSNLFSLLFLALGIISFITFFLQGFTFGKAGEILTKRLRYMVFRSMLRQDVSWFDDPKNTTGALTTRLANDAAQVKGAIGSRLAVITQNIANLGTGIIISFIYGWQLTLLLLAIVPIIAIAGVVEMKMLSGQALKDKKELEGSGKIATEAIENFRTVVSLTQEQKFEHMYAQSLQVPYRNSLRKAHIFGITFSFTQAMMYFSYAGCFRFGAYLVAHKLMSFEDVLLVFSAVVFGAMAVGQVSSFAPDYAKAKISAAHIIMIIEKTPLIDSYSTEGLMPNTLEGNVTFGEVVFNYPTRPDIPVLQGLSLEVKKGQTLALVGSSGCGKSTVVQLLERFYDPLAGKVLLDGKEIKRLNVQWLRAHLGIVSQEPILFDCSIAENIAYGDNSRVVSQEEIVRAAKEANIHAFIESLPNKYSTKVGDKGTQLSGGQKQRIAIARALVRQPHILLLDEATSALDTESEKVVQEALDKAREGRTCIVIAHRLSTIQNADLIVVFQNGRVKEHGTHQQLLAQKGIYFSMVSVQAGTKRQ", "experiment": "Interaction with human P-glycoprotein in Caco-2 cell monolayers", "format": "in vitro ADME"}, "respiratory system": {"tested_on": "respiratory system", "experiment": "Respiratory study in Sprague Dawley rat", "format": "in vivo", "details": "male rat, single oral administration up to 350 mg/kg"}, "central nervous system": {"tested_on": "central nervous system", "experiment": "Neurofunctional study (FOB, motor activity) in Sprague-Dawley rat", "format": "in vivo", "details": "male rats, 2 h after a 350 mg/kg dose"}, "[5]": {"tested_on": "CD63 expression on the surface of basophils", "experiment": "Basophil activation assay in whole blood of oncology patients (PI3K inhibition)", "format": "in vivo, human", "details": "from PK/PD in patients", "procedure": "(§1) PK and PD markers were evaluated after the first dose (e.g., 8 mg BID) and at steady state. PD activity (PI3K inhibition) in whole blood was evaluated using a basophil activation assay which measured reduction in CD63 expression on the surface of basophils following ex vivo stimulation."}, "MJ": {"tested_on": "MJ", "experiment": "CTCL cytotoxicity, 72 hours", "format": "cell-based", "details": "MJ cells", "procedure": "(§2) MJ and HuT78 cells were grown in IMDM 20% FBS, and HH cells were grown in RPMI 10% FBS."}, "HH": {"tested_on": "HH", "experiment": "CTCL cytotoxicity, 72 hours", "format": "cell-based", "details": "HH cells, vs MJ or HuT78", "procedure": "as §2"}, "HuT78": {"tested_on": "HuT78", "experiment": "CTCL cytotoxicity, 72 hours", "format": "cell-based", "details": "HuT78 cells", "procedure": "as §2"}, "[6]": {"tested_on": "hemodynamic and electrocardiographic parameters", "experiment": "Cardiovascular study in instrumented cynomolgus monkey", "format": "in vivo", "details": "male cynomolgus monkeys", "text": "Four non-naive, male monkeys implanted with radiotelemetry transmitters were utilized during the conduct of this study."}, "PI3K δ [7]": {"biological_target": "T1, PI3K δ", "experiment": "PI3K-δ suppression level (IC90) quoted with clinical plasma concentrations"}, "[8]": {"experiment": "Plasma protein binding in vitro, monkey", "format": "in vitro ADME", "details": "all concentrations tested"}, "[9]": {"experiment": "Phase 1 study in hematologic malignancies: pharmacokinetics, steady state plasma concentrations", "format": "in vivo, human", "procedure": "as §1"}}, "note": "Values joined by “and” are separate entries in the source; they are usually repeats but may differ in a detail not shown here. Equal entries are not always repeated. “Also recorded” adds a separate entry of the source. Where two headings read alike, the source gives them in different places.", "data": [{"smiles": "C[C@H](Nc1ncnc2[nH]cnc12)c1cc2cccc(Cl)c2c(=O)n1-c1ccccc1", "note": "[Compound 292]", "values": [{"measurement": "Foral", "setting": "[1]; calculated using 0.5 mg/kg IV dose as reference and AUC0-last", "result": 97, "unit": "g'i %"}, {"measurement": "Foral", "setting": "[1]; calculated using 1 mg/kg IV dose as reference and AUC0-last", "result": "40% and 40h'i %"}, {"measurement": "EC50", "setting": "Human T-cell", "result": "5 to 10", "unit": "nM"}, {"measurement": "EC50", "setting": "[2]", "result": "< 10", "unit": "nM"}, {"measurement": "adverse effect in micronucleus assay", "setting": "[3]", "result": "no direct adverse effect"}, {"measurement": "IC50", "setting": "OCI-LY3", "result": "> 50000", "unit": "nM"}, {"measurement": "IC90", "setting": "PI3K δ [4]", "result": 0.361, "unit": "µg/mL"}, {"measurement": "P-gp substrate status", "setting": "human P-glycoprotein", "result": "is a P-gp substrate"}, {"measurement": "inhibition of active transport of other P-gp substrates", "setting": "human P-glycoprotein", "result": "has the potential to inhibit"}, {"measurement": "effects on respiratory parameters (respiratory rate, tidal volume, minute volume)", "setting": "respiratory system", "result": "no Compound 292-related effects"}, {"measurement": "locomotor activity", "setting": "central nervous system", "result": "Significant decreases"}, {"measurement": "dose achieving complete inhibition of PI3K-δ", "setting": "[5]", "result": "≥ 15", "unit": "mg BID"}, {"measurement": "doses that increasingly suppress PI3K-γ", "setting": "[5]", "result": "≥ 25", "unit": "mg BID"}, {"measurement": "cytotoxicity, sensitivity", "setting": "MJ", "result": "resistant"}, {"measurement": "cytotoxicity, sensitivity", "setting": "HH", "result": "more sensitive"}, {"measurement": "cytotoxicity, sensitivity", "setting": "HuT78", "result": "medium sensitivity"}, {"measurement": "effects on hemodynamic or electrocardiographic parameters", "setting": "[6]; single oral dose of 5, 30, and 150 mg/kg", "result": "No Compound 292-related effects"}, {"measurement": "waveform abnormalities or arrhythmias", "setting": "[6]; up to 150 mg/kg", "result": "no waveform abnormalities or arrhythmias"}, {"measurement": "IC90", "setting": "PI3K δ [7]", "result": 0.361, "unit": "µg/mL"}, {"measurement": "percent free in plasma compared with human plasma", "setting": "[8]", "result": "consistently higher"}, {"measurement": "Any AE", "setting": "25 mg BID (n = 34)", "result": 27}, {"measurement": "Any AE, Grade 3", "setting": "25 mg BID (n = 34)", "result": 7}, {"measurement": "Any AE, Grade 4", "setting": "25 mg BID (n = 34)", "result": 5}, {"measurement": "New Grade 3 ALT", "setting": "25 mg BID (n = 34)", "result": 3}, {"measurement": "New Grade 3 ANC", "setting": "25 mg BID (n = 34)", "result": 2}, {"measurement": "New Grade 4 ANC", "setting": "25 mg BID (n = 34)", "result": 4}, {"measurement": "Related AE", "setting": "25 mg BID (n = 34)", "result": 18}, {"measurement": "Related Grade 3 AE", "setting": "25 mg BID (n = 34)", "result": "4/4"}, {"measurement": "Related Grade 4 AE", "setting": "25 mg BID (n = 34)", "result": "4/4"}, {"measurement": "new Grade >3 neutropenia", "setting": "20 patients, 8-50 mg BID", "result": 6, "unit": "n"}, {"measurement": "patients with AEs Grade >3", "setting": "20 patients, 8-50 mg BID", "result": 7, "unit": "patients"}, {"measurement": "patients with adverse events (AEs)", "setting": "20 patients, 8-50 mg BID", "result": 13, "unit": "patients"}, {"measurement": "dose limiting toxicity observed to date", "setting": "20 patients, 15 mg dose cohort", "result": "Grade 4 neutropenia"}, {"measurement": "discontinuations due to treatment related AEs", "setting": "55 patients", "result": "three"}, {"measurement": "DLTs", "setting": "55 patients, 8-75 mg BID", "result": "Grade 4 neutropenia (15 mg BID) and Grade 3 cellulitis (wound infection, 75 mg BID)"}, {"measurement": "dose-related trends in related Grade 3 or Grade 4 AEs", "setting": "55 patients, 8-75 mg BID", "result": "No dose-related trends"}, {"measurement": "Any AE", "setting": "Safety Population (n = 55)", "result": 46}, {"measurement": "Any AE, Grade 3", "setting": "Safety Population (n = 55)", "result": 18}, {"measurement": "Any AE, Grade 4", "setting": "Safety Population (n = 55)", "result": 8}, {"measurement": "New Grade 3 ALT", "setting": "Safety Population (n = 55)", "result": 5}, {"measurement": "New Grade 3 ANC", "setting": "Safety Population (n = 55)", "result": 10}, {"measurement": "New Grade 4 ANC", "setting": "Safety Population (n = 55)", "result": 5}, {"measurement": "Related AE", "setting": "Safety Population (n = 55)", "result": 31}, {"measurement": "Related Grade 3 AE", "setting": "Safety Population (n = 55)", "result": 14}, {"measurement": "Related Grade 4 AE", "setting": "Safety Population (n = 55)", "result": 6}, {"measurement": "Deaths on Study", "setting": "Safety Population (n = 55), all due to disease progression", "result": 3, "unit": "n"}, {"measurement": "mean predose steady state plasma concentration", "setting": "[9]; 25 mg BID, C2D1", "result": 390, "unit": "ng/mL"}, {"measurement": "dose dependence of plasma Cmax and AUC", "setting": "[9]; patients with hematologic malignancies, BID dosing", "result": "dose-proportional increases; also recorded: dose-proportional PK; also recorded: linear PK profile; also recorded: increases proportionally with doses"}, {"measurement": "time of maximum plasma concentration post-dosing", "setting": "[9]; steady state C2D1, 25 mg and 75 mg BID", "result": "about 1 hour"}]}]}
